Entries after “also recorded” stand apart in the source; their conditions may differ. Where two headings read alike, the source gives them in different places. Some results are limits rather than exact numbers.

In data set [1] the target is T1, ABL1 kinase (Homo sapiens, UniProt P00519).
T1 construct: purchased Promega, Madison, WI, USA
The following applies: a value in the previous paper; cited from earlier work.

The subject of data set [2] is peripheral blood mononuclear cells (PBMC). Nature of the data set: MTT cell viability assay, PBMC. Type of data set: cell-based. The settings on record: PBMC, 24 h exposure. On the procedure:
(§1) A549 human lung carcinoma and HeLa human cervical carcinoma cell lines were cultured in Dulbecco’s Modified Eagle Medium (DMEM). MCF7 human breast cancer and leukemic (K562, HL-60, MT-2 and Jurkat) cells, and PBMC (Precision Bioservices, Frederic, MD, USA) were cultured in RPMI 1640. All media were purchased from FUJIFILM Wako (Osaka, Japan) and supplemented with 10% fetal bovine serum (FBS) (Sigma-Aldrich, St. Louis, MO, USA) and 89 μg/mL streptomycin (Meiji Seika Pharma, Tokyo, Japan) at 37 °C in a humid atmosphere and 5% CO2. In experiments, all cancer cell lines and PBMC were cultured in 24-well and 96-well plates (Iwaki brand Asahi Glass, Chiba, Japan) at 2 × 10^4 cells/mL and 1 × 10^6 cells/mL concentrations, respectively for 24 h.
(§2) The cells were exposed to various concentrations (1–100 μM) of the compounds for 24 h at 37 °C. The cells were then stained with MTT solution and incubated for additional 4 h. At the end of this period, supernatants were removed and 100 μL DMSO was added to each well to solubilize the formazan crystals. The absorbance of the solution was determined on the Infinitive M1000 (Tecan, Mannedorf, Switzerland) plate reader at a wavelength of 550 nm with background subtraction at 630 nm.
On the technique in general: Tetrazolium assays rely on reduction of a dye to a coloured formazan, in cell work by metabolically active cells.

Data set [3] relates to CML cell line K562. Put plainly: MTT cell viability assay, K562. The settings on record: for IC50: MTT, 24 h exposure, read-out: IC50 Values, K562 Cell Line; for SI (selectivity index): ratio of the IC50 between PBMC and K562 cells. The class given is cell-based, human. On the procedure:
A549 human lung carcinoma and HeLa human cervical carcinoma cell lines were cultured in Dulbecco’s Modified Eagle Medium (DMEM). […] In experiments, all cancer cell lines and PBMC were cultured in 24-well and 96-well plates (Iwaki brand Asahi Glass, Chiba, Japan) at 2 × 10^4 cells/mL and 1 × 10^6 cells/mL concentrations, respectively for 24 h.
The cells were then stained with MTT solution and incubated for additional 4 h. At the end of this period, supernatants were removed and 100 μL DMSO was added to each well to solubilize the formazan crystals. The absorbance of the solution was determined on the Infinitive M1000 (Tecan, Mannedorf, Switzerland) plate reader at a wavelength of 550 nm with background subtraction at 630 nm.

The target of data set [4] is T1, ABL1 kinase. Nature of the data set: ABL1 kinase inhibition (ADP-Glo Kinase Assay). The class given is biochemical. The following applies: for IC50: ADP-Glo, 1 h incubation, room temperature. On the procedure: The ABL1 kinase profiling assay protocol was applied according to the manufacturer`s instructions (Promega, Madison, WI, USA) with the modification proposed in [36]. In this system, the ABL1 kinase and its substrate were diluted with 95 µL 2.5x Kinase Buffer and 15 µL of 100 µM ATP solutions, respectively. Then, the reaction of ABL1 kinase was performed using 2 µL of the compound solution at varying concentrations (0.1–30 µM), 4 µL of kinase working stock, and 4 µL of ATP/substrate working stock in the 384-well plate. After 1 h of incubation at room temperature, the activity of the ABL1 kinase was detected using the ADP-Glo Kinase Assay (Promega, Madison, WI, USA) and the inhibitory kinase activity of compounds in dose-response mode was measured by the Infinitive M1000 luminescence plate reader (Tecan, Groding, Austria).

Data set [5] deals with ERK1/2 and phosphorylated ERK1/2 in K562 cells. Nature of the data set: Immunoblot analysis of ERK signaling in K562. Type of data set: cell-based, human. The settings on record: K562, 10 μM, 6 h. On the procedure: After 6 h of treatment at 37 °C, the cells were lysed in PBS-Laemmli sample buffer and then, immunoblot analysis was conducted using phospho-specific-p44/42 MAPK (Erk1/2) (Thr202/Tyr204) (D13.14.4E) XP Rabbit mAb (1:1000) (Cell Signaling Technology, Danvers, MA, USA) or anti-β-actin clone AC-15 (Sigma-Aldrich, St. Louis, MO, USA). For immunoreactivity detection, the chemiluminescence method was performed as previously described. The band intensity was measured using the ImageJ software (NIH, Bethesda, MD, USA).

Data set [6] relates to Jurkat. Put plainly: MTT cell viability assay, Jurkat. The settings on record: Homo sapiens, 24 h exposure. The class given is cell-based. On the procedure:
as §1, §2

Data set [7] concerns MCF7 human breast cancer. Put plainly: MTT cell viability assay, MCF7. The following applies: 24 h exposure. Type of data set: cell-based. On the procedure: as §1, §2
In data set [8] the test system is HeLa human cervical carcinoma. Nature of the data set: MTT cell viability assay, HeLa. Type of data set: cell-based. The following applies: 24 h exposure. On the procedure: as §1, §2
Data set [9] relates to A549 human lung carcinoma. Nature of the data set: MTT cell viability assay, A549. The class given is cell-based. The settings on record: for IC50: Homo sapiens, A549, MTT, 24 h exposure. On the procedure: as §1, §2
Data set [10] deals with K562 cells. Put plainly: Cell death detection (Hoechst 33342/annexin V/ethidium homodimer III staining). The following applies: K562, IC50 concentration, 8 h. The class given is cell-based, human. On the procedure: The cells were then briefly washed twice with 1 × binding buffer. A staining solution containing 50 μL of 1 × binding buffer and 5 μL of FITC-Annexin V solution, 5 μL of ethidium homodimer III solution, or 5 μL of Hoechst 33342 solution was added, and incubated for 15 min at room temperature in the dark. Then, the cells were washed with 1 × binding buffer, and analyzed by the all-in-one fluorescence microscope Biorevo Fluorescence BZ-9000 (Keyence, Osaka, Japan). The number of healthy cells (Hoechst 33342), apoptotic cells (Annexin V), late apoptotic or necrotic cells (Annexin V and Ethidium homodimer III) and necrotic cells (Ethidium homodimer III) were counted as previously described.

The subject of data set [11] is HL-60. Put plainly: MTT cell viability assay, HL-60. The following applies: Homo sapiens, 24 h exposure. The class given is cell-based. On the procedure: as §1, §2
Data set [12] deals with MT-2. Put plainly: MTT cell viability assay, MT-2. Type of data set: cell-based. The settings on record: Homo sapiens, MT2, 24 h exposure. On the procedure:
as §1, §2

T1 sequence (P00519 whole entry): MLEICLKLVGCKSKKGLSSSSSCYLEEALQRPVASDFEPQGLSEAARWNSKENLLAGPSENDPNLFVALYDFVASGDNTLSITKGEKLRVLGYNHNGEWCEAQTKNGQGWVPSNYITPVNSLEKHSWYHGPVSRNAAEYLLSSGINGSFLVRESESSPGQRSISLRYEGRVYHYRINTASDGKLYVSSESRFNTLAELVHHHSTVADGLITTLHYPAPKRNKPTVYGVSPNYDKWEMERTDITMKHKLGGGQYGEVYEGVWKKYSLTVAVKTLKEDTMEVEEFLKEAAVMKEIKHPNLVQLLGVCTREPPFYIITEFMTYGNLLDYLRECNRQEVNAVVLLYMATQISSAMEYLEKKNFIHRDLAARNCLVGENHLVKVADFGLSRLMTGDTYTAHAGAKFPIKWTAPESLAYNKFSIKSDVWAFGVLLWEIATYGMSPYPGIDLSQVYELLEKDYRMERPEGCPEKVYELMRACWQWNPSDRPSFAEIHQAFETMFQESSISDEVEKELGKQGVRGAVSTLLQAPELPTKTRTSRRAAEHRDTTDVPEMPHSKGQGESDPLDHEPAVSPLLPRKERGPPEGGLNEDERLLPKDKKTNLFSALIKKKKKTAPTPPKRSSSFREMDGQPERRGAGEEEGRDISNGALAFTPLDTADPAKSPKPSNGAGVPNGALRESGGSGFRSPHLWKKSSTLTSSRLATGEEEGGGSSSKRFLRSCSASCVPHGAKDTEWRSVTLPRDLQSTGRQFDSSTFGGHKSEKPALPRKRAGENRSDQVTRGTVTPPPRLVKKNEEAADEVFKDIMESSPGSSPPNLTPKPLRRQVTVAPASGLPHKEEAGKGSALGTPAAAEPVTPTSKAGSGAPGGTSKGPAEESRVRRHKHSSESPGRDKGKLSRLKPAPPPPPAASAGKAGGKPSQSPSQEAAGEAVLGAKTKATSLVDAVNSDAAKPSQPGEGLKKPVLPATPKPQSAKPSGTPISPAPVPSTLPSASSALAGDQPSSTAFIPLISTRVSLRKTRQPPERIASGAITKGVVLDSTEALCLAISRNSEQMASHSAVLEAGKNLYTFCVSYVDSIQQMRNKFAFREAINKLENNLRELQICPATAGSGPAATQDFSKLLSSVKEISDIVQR

By IC50 is commonly meant the point on the concentration scale where inhibition reaches its midpoint. Turning to `CC1(C)CC[C@]2(C(=O)OCc3ccccc3)CC[C@]3(C)C(=CC[C@@H]4[C@@]5(C)CC[C@H](O)[C@@](C)(C=O)[C@@H]5CC[C@]43C)[C@@H]2C1` [Compound 1c, benzyl ester of gypsogenin], the 50% inhibitory concentration (IC50) in data set [1] was 8.71 ± 1.14 µM; in data set [2] it was above 100 µM; in data set [3] (Homo sapiens, K562, 24 h), 8.94 ± 1.73 µM. In addition, the “SI (selectivity index)” value in data set [3] was above 11.19.

For orientation: melting point means the temperature, or range, at which the solid turns liquid. In turn, `CC1(C)CC[C@]2(C(=O)OCc3cc(C(F)(F)F)cc(C(F)(F)F)c3)CC[C@]3(C)C(=CC[C@@H]4[C@@]5(C)CC[C@H](O)[C@@](C)(C=O)[C@@H]5CC[C@]43C)[C@@H]2C1` [GP2, Gypsogenin 3,5-bis(trifluromethyl)benzyl ester] yielded a melting point of 85 to 87 °C. In addition, the IC50 in [4] is 7.19 ± 0.65 µM. In data set [5], the “ERK phosphorylation (phosphorylated ERK1/2)” value (“ERK phosphorylation” for short) was “inhibitory effect of ERK phosphorylation” and the “amount of ERK1/2” value is “moderately decreased”. Also, 9.14 ± 0.71 µM corresponded to half-maximal inhibition in data set [6] (IC50). This molecule also displayed an IC50 in data set [7] of 51.6 ± 4.75 µM. In data set [2], this molecule displayed an IC50 of 52.8 ± 3.82 µM. For the same molecule, in data set [8], the half-maximal inhibitory concentration (IC50) came to 35.3 ± 2.84 µM. In addition, in data set [9], the “activity against A549 cell line at 100 µM” value was “inactive” and the half-inhibitory concentration (IC50) was above 100 µM. In data set [3] (Homo sapiens, K562, 24 h), the IC50 was determined as 4.78 ± 1.25 µM. Besides, the “SI (selectivity index)” value in data set [3] was 11.04. In [10], the “apoptotic effects on CML cell line” value turned out to be 24% and the late apoptotic/necrotic effects worked out at 4.5%. It took 5.27 ± 0.42 µM to reach half-maximal inhibition in [11] (IC50). The half-maximal inhibitory concentration (IC50) in data set [12] amounted to 36.8 ± 4.21 µM.

With `CC1(C)CC[C@]2(C(=O)OCc3ccc(C#N)cc3)CC[C@]3(C)C(=CC[C@@H]4[C@@]5(C)CC[C@H](O)[C@@](C)(C=O)[C@@H]5CC[C@]43C)[C@@H]2C1` [GP5, Gypsogenin 4-cyanobenzyl ester], the melting point lay in the range of 175 to 177 °C. Moreover, 6.16 ± 0.63 µM corresponded to half-maximal inhibition in [4] (IC50). In data set [5], the “ERK phosphorylation” value is recorded as “inhibitory effect of ERK phosphorylation” and the “amount of ERK1/2” value is given as “moderately decreased”. The IC50 in data set [6] was 4.83 ± 0.35 µM. Also, in [7], the IC50 is 15.3 ± 2.11 µM. Further, the IC50 in data set [2] was determined as 25.6 ± 2.18 µM. Further, in data set [8], the concentration for half-maximal inhibition (IC50) is 5.66 ± 0.32 µM. This molecule showed an IC50 in [9] of 24.6 ± 1.94 µM. In addition, the IC50 in [3] (Homo sapiens, K562, 24 h) is 3.19 ± 1.21 µM. Further, the “SI (selectivity index)” value in data set [3] is 8.03. In [10], the “apoptotic effects on CML cell line” value worked out at 9.5% and the late apoptotic/necrotic effects is on record as 5.1%. For the same molecule, the IC50 in data set [11] was found to be 4.36 ± 0.28 µM. The molecule also gave a 50% inhibitory concentration (IC50) in [12] of 7.26 ± 0.97 µM.

Take `CC1(C)CC[C@]2(C(=O)OCc3ccccc3)CC[C@]3(C)C(=CC[C@@H]4[C@@]5(C)CC[C@H](O)C(C)(C)[C@@H]5CC[C@]43C)[C@@H]2C1` [PT5, Oleanolic acid benzyl ester]: the IC50 in data set [4] is 1.44 ± 0.12 µM; in [6], 13.8 ± 1.58 µM; in data set [7], 53.9 ± 6.46 µM; in data set [2], 50.2 ± 4.58 µM; in [8], 67 ± 4.19 µM; in [9], above 100 µM. Further, the IC50 was around 5.5 µM in [3] (Homo sapiens, K562, 24 h); 5.46 ± 1.51 µM in [3]; 15.7 ± 1.36 µM in data set [11]; 34.7 ± 3.85 µM in data set [12]. For the same molecule, the “ABL kinase IC50 potency relative to 1c” value in data set [4] (fold vs 1c) was “six times stronger; also recorded: about sixfold”. Besides, the “ERK phosphorylation” value in data set [5] is listed as “inhibitory effect of ERK phosphorylation”. The “amount of ERK1/2” value in data set [5] was “moderately decreased”. In addition, the “activity against A549 cell line at 100 µM” value in data set [9] was “inactive”. The “SI (selectivity index)” value in data set [3] is 9.19. In data set [10], the “apoptotic effects on CML cell line” value is given as 14%. The molecule also gave a late apoptotic/necrotic effects in data set [10] of 11%.
